Assay: LC-MS/MS MRM quantitation of metformin-MG imidazolinone and metformin in human urine
Format: in vivo
Protocol: An Agilent (Palo Alto, Calif.) 1260 liquid chromatograph was utilized for achieving gradient separation using an Agilent ZORBAX Hilic Plus (2.1×50 mm) column with a 1.8 μm packing size held at 30° C. throughout the separation. A 5 μL injection of urine diluted 1:200 in Milli-Q water and snap filtered ([…] eXtreme® Filter Vial 0.2 um PVDF; Thomson, Oceanside, Calif.) was used for all samples. A binary gradient consisting of 15 mM ammonium acetate in water (A) and acetonitrile (B) at a flow rate of 300 μL/min was used. […] After this, a linear gradient was maintained to achieve 35% B at 9 min which was held for another minute. At 10 min, another linear change was applied to get to the initial condition of 95% B at 11 min. A post-time of three min was used to re-equilibriate the column before the next analysis. The total analysis time was 14 min per sample. Mass spectrometry was performed using an Agilent 6490 triple-quadrupole mass spectrometer with an electrospray ionization (ESI) source. […] After this was determined, the mass spectrometer was operated in product ion scan mode and the most abundant product ions were selected. […] Once the product ions were determined, the collision energy (CE) and cell accelerator voltage (CAV) were optimized for each transition. […]

## CC1NC(/N=C(\N)N(C)C)=NC1=O (centres unmarked) [IMZ, (E)-1,1-dimethyl-2-(5-methyl-4-oxo-4,5-dihydro-1H-imidazol-2-yl)guanidine]
All MF-treated T2DM patients
  IMZ in urine of MF-treated T2DM patients: detected
Human diabetic subjects on MF treatment
  Levels of the MF-MG adduct detectable in urine: up to 4.32 μM/specific gravity

Reference: US20190137505A1 (THE ARIZONA BOARD OF REGENTS ON BEHALF OF THE UNIVERSITY OF …, priority 2015, published 2019)
